Among the data in patent US20230115350A1 (Cedilla Therapeutics, Inc., priority 2021, published 2023) are IC50 and GI50 values, retold here.

The target of test [1] is TEAD1 protein (YAP Binding Domain) (Homo sapiens, UniProt P28347). Kind of test: TEAD1 lipid pocket compound displacement assay (TR-FRET, Cy5-probe). As to conditions: 60 minutes incubation at room temperature; TR-FRET 665 nm/620 nm; read-out: CDA IC50. The method, then:
Compound Displacement Assay.
A TEAD1 lipid pocket displacement assay was carried out according to the following protocol. Purified His-tagged TEAD1 protein (YAP Binding Domain) was pre-mixed with a Cy5-probe (Cy5-conjugated to a small molecule that binds in the TEAD1 lipid pocket) and Terbium-labeled anti-His antibody (Cisbio Cat 61HI2TLB). The binding of the Cy5-probe to anti-His-Tb/His-tag TEAD1 complex yielded a TR-FRET signal. […] After 60 minutes incubation at room temperature of compounds with the His-TEAD1/anti-His-Tb/Cy5-probe complex, the plate was read on a plate reader (BMG ClarioStar Cat 430-1300) using TR-FRET mode with wavelengths of 665 nm/620 nm. The potency of compounds as TEAD1 lipid pocket binders was determined by IC50 value generated using a non-linear 4 parameter curve fit.
A general note: In TR-FRET formats the signal depends on donor and acceptor labels being close together.

For another test, the system named is NCI-H226. Description: 72H TEAD Proliferation Assay (Cell Titer-Glo 2.0). The class given is cell-based. As to conditions: CTG 2.0, cell line not given. The method, then:
The effect of TEAD inhibition on cell proliferation was assayed using Cell Titer Glo (CTG) 2.0 to measure response in mesothelioma cell lines NCI-H226 (ATCC, #CRL-5826) and NCI-H28 (ATCC, #CRL-5820).
The 72H TEAD Proliferation assay utilizes Cell Titer-Glo 2.0 (Promega, #G9243) to measure the proliferation of cells in the presence or absence of compound. Cell Titer-Glo 2.0 determines the amount of viable cells by quantifying ATP (an indication of metabolically active cells). It utilizes the conversion of Luciferin to Oxyluciferin and a luminescent signal with the use of ATP to report the quantity of viable cells in culture. Within cells that are continually growing, ATP is being synthesized to meet their metabolic demands, meanwhile the opposite is true for cells that are dying or slowing down their proliferation and either no longer using ATP or are using less, respectively. The NF2-deficient NCI-H226 has been genetically validated as a cell line that is sensitive to TEAD inhibition. The NF2-wild type NCI-H28 has been genetically validated as a cell line that is not sensitive to TEAD inhibition and grows independently of TEAD activity.
Compounds were screened against the responsive NCI-H226 cell line to assess the compounds' ability to inhibit TEAD and cell growth. Compounds were also screened against the non-responsive NCI-H28 cell line to ascertain whether the inhibition of cell growth was due to inhibition of the target TEAD or whether the inhibition was due to off-target cytotoxicity.
1) Assay ready plates (ARPs) were prepared by Echo acoustic liquid handler. For each compound, duplicate of 10-point half-log dilution series were dispensed in a 384-well microplate (Corning 3571).
5) NCI-H226 or NCI-H28 cells were harvested from culture in Assay Medium 1 and the multidrop Combi reagent dispenser was used to seed cells at 500 cells per 50 ul in each well of the ARPs and one Corning 3571 plate without compounds for Time 0 (TO) readout.
6) The TO plate was incubated for 2 hours at 37° C. with 5% CO2 to allow cells to settle, then the CTG Assay was performed.
7) All ARPs were incubated for 72 hours at 37° C. with 5% CO2, then the CTG Assay was performed for Time 72H (T72) readout.
8) CTG Assay: Bravo liquid handler (Agilent) was used to add 25 ul of CTG 2.0 to all columns of the plate except for Column 24, which was used to subtract out the background. After CTG addition, plates were placed on shaker at 800 RPM for 15 minutes at room temperature and kept in the dark. Luminescence was measured using EnVision multilabel plate reader with ultra-sensitive detection module.
9) Data Analysis: First background luminescence (no CTG wells) was subtracted from luminescence reading of all wells, then TO luminescence was subtracted from T72 luminescence. To compare anti-proliferative effect of compounds, GI50 was obtained by fitting dose response curves with nonlinear regression curve fit.

One may read the IC50 as the midpoint of a concentration-inhibition curve. A word on the GI50: it is the concentration that inhibits growth by half. Low readings indicate greater sensitivity of the cells, high ones lower sensitivity of the cells.

TEAD1 protein (YAP Binding Domain), sequence (P28347 209-426 limits assumed): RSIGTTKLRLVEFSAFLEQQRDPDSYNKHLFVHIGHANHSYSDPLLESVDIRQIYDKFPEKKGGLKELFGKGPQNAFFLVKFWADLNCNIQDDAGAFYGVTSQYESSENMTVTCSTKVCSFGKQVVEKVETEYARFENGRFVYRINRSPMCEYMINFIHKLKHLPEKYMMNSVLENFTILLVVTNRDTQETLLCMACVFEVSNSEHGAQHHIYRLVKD

In the case of `C=C(F)C(=O)Nc1ccc(OCC2CCC(F)(F)CC2)c(F)c1` [Compound 149, N-(4-((4,4-difluorocyclohexyl)methoxy)-3-fluorophenyl)-2-fluoroacrylamide], the IC50 in test [1] lay in the range of 250 to 500 nM. Also, the GI50 in the test on NCI-H226 (Homo sapiens, NCI-H226, 72 h) was at most 250 nM.
The like results for `C=CC(=O)Nc1ccc(OCc2ccc(Cl)nc2)c(F)c1` [Compound 72, N-(4-((6-chloropyridin-3-yl)methoxy)-3-fluorophenyl)acrylamide] were, in that order, 500 to 2000 nM and over 3000 nM.
Consider `C=CC(=O)Nc1cc2nc(CCC(C)C)oc2cc1F` [Compound 132, N-(6-fluoro-2-isopentylbenzo[d]oxazol-5-yl)acrylamide], for which the IC50 in test [1] lay in the range of 250 to 500 nM. Besides, the GI50 in the test with NCI-H226 (Homo sapiens, NCI-H226, 72 h) was at most 250 nM.
The matching figures for `C=CC(=O)Nc1ccc(NCc2cccc(F)c2)c(F)c1` [Compound 101, N-(3-fluoro-4-((3-fluorobenzyl)amino)phenyl)acrylamide]: 500 to 2000 nM and 1000 to 3000 nM.
Consider `C=CC(=O)Nc1ccc(OCc2cncc(C(F)(F)F)c2)c(F)c1` [Compound 104, N-(3-fluoro-4-((5-(trifluoromethyl)pyridin-3-yl)methoxy)phenyl)acrylamide], for which the IC50 in test [1] fell in the range of 250 to 500 nM. The GI50 with NCI-H226 (Homo sapiens, NCI-H226, 72 h) was 250 to 1000 nM.
For `C=CC(=O)Nc1ccc(OCc2ccc(F)c(F)c2)c(F)c1` [Compound 96, N-(4-((3,4-difluorobenzyl)oxy)-3-fluorophenyl)acrylamide], the IC50 in test [1] is at most 250 nM. In the test on NCI-H226 (Homo sapiens, NCI-H226, 72 h), the GI50 lay within 250 to 1000 nM.
`C=CC(=O)Nc1ccc(COc2cccc(F)c2)c(F)c1` [Compound 28, N-(3-fluoro-4-((3-fluorophenoxy)methyl)phenyl)acrylamide]: the IC50 in test [1] fell in the range of 250 to 500 nM. This molecule had a GI50 in the test on NCI-H226 (Homo sapiens, NCI-H226, 72 h) of 250 to 1000 nM.
The matching figures for `C=CC(=O)Nc1ccc(OCc2cccc(F)c2)c(C)c1` [Compound 51, N-(4-((3-fluorobenzyl)oxy)-3-methylphenyl)acrylamide]: 250 to 500 nM and over 3000 nM.
As for `C=CC(=O)Nc1ccc(OCc2cccc(CC)c2)c(F)c1` [Compound 26, N-(4-((3-ethylbenzyl)oxy)-3-fluorophenyl)acrylamide], in test [1], the IC50 was at most 250 nM. The molecule also returned a GI50 in the test on NCI-H226 (Homo sapiens, NCI-H226, 72 h) of 250 to 1000 nM.
Consider `C=CC(=O)Nc1ccc(OCc2cccc(Cl)c2F)c(F)c1` [Compound 99, N-(4-((3-chloro-2-fluorobenzyl)oxy)-3-fluorophenyl)acrylamide], for which the IC50 in test [1] was at most 250 nM. The molecule also had a GI50 with NCI-H226 (Homo sapiens, NCI-H226, 72 h) of over 3000 nM.
The matching figures for `C=CC(=O)Nc1ccc(-c2ccc(C(F)(F)F)cc2)c2ncccc12` [Compound 150, N-(8-(4-(trifluoromethyl)phenyl)quinolin-5-yl)acrylamide]: at most 250 nM and at most 250 nM.
The matching figures for `C=C(F)C(=O)Nc1ccc2c(c1)OC(c1cccc(C(F)(F)F)c1)O2` (stereo not drawn) [Compound 148, 2-fluoro-N-(2-(3-(trifluoromethyl)phenyl)benzo[d][1,3]dioxol-5-yl)acrylamide]: 500 to 2000 nM and 250 to 1000 nM.
In the case of `C=CC(=O)Nc1ccc(OCc2cccnc2Br)c(F)c1` [Compound 74, N-(4-((2-bromopyridin-3-yl)methoxy)-3-fluorophenyl)acrylamide], the IC50 in test [1] was over 2000 nM. The GI50 with NCI-H226 (Homo sapiens, NCI-H226, 72 h) is over 3000 nM.
The like results for `C=CC(=O)Nc1ccc(C2COc3ccccc3C2)c(F)c1` (stereo not drawn) [Compound 120, N-(4-(chroman-3-yl)-3-fluorophenyl)acrylamide] were, in that order, 250 to 500 nM and over 3000 nM.
Take `C=CC(=O)Nc1cc2nc(C3CCC(F)(F)CC3)oc2cc1F` [Compound 138, N-(2-(4,4-difluorocyclohexyl)-6-fluorobenzo[d]oxazol-5-yl)acrylamide]: the IC50 in test [1] is 250 to 500 nM. Besides, the GI50 with NCI-H226 was in the range of 1000 to 3000 nM.
`C=CC(=O)Nc1ccc(COc2cccc(C(F)(F)F)c2)c(F)c1` [Compound 31, N-(3-fluoro-4-((3-(trifluoromethyl)phenoxy)methyl)phenyl)acrylamide]: the IC50 in test [1] is at most 250 nM. Besides, in the test on NCI-H226 (Homo sapiens, NCI-H226, 72 h), the GI50 was at most 250 nM.
For the molecule `C=CC(=O)Nc1cnc(OCc2cccc(F)c2)c(F)c1` [Compound 129, N-(5-fluoro-6-((3-fluorobenzyl)oxy)pyridin-3-yl)acrylamide], the IC50 in test [1] lay in the range of 250 to 500 nM. Moreover, the GI50 in the test on NCI-H226 (Homo sapiens, NCI-H226, 72 h) is over 3000 nM.
The matching figures for `C=CC(=O)Nc1ccc(OCc2cccc(C(F)(F)F)c2)c(C#N)c1` [Compound 38, N-(3-cyano-4-((3-(trifluoromethyl)benzyl)oxy)phenyl)acrylamide]: 500 to 2000 nM and 1000 to 3000 nM.
The like results for `C=CC(=O)Nc1ccc(OCc2cnc(C(F)(F)F)nc2)c(F)c1` [Compound 98, N-(3-fluoro-4-((2-(trifluoromethyl)pyrimidin-5-yl)methoxy)phenyl)acrylamide] were, in that order, over 2000 nM and 1000 to 3000 nM.
The matching figures for `C=CC(=O)Nc1ccc(OCC2CCCC(C(F)(F)F)C2)c(F)c1` (stereo not drawn) [Compound 91, N-(3-fluoro-4-((3-(trifluoromethyl)cyclohexyl)methoxy)phenyl)acrylamide]: at most 250 nM and 250 to 1000 nM.
As for `C=CC(=O)Nc1ccc(OCC2CCC(F)(F)CC2)c2ocnc12` [Compound 21, N-(7-((4,4-difluorocyclohexyl)methoxy)benzo[d]oxazol-4-yl)acrylamide], in test [1], the IC50 was at most 250 nM. For the same molecule, the GI50 with NCI-H226 (Homo sapiens, NCI-H226, 72 h) was at most 250 nM.
Turning to `C=CC(=O)Nc1ccc(Oc2cccc(F)c2)c(F)c1` [Compound 106, N-(3-fluoro-4-(3-fluorophenoxy)phenyl)acrylamide], the IC50 in test [1] is at most 250 nM. For the same molecule, the GI50 in the test on NCI-H226 (Homo sapiens, NCI-H226, 72 h) was over 3000 nM.
The like results for `C=CC(=O)Nc1ccc(OCc2cccc(C(F)(F)F)n2)c(F)c1` [Compound 115, N-(3-fluoro-4-((6-(trifluoromethyl)pyridin-2-yl)methoxy)phenyl)acrylamide] were, in that order, 250 to 500 nM and at most 250 nM.
As for `C=CC(=O)Nc1cc2nc(Cc3ccccc3)oc2cc1F` [Compound 137, N-(2-benzyl-6-fluorobenzo[d]oxazol-5-yl)acrylamide], the IC50 in test [1] was 250 to 500 nM. This molecule registered a GI50 with NCI-H226 (Homo sapiens, NCI-H226, 72 h) of over 3000 nM.
The matching figures for `C=CC(=O)Nc1ccc(OC(C)c2cccc(F)c2)c(F)c1` (stereo not drawn) [Compound 124, N-(3-fluoro-4-(1-(3-fluorophenyl)ethoxy)phenyl)acrylamide]: 250 to 500 nM and over 3000 nM.
The matching figures for `C=CC(=O)Nc1cc2nc(CCC(F)(F)C(F)(F)F)oc2cc1F` [Compound 140, N-(6-fluoro-2-(3,3,4,4,4-pentafluorobutyl)benzo[d]oxazol-5-yl)acrylamide]: at most 250 nM and at most 250 nM.
The matching figures for `C=CC(=O)Nc1ccc(OCc2cccc(F)c2Cl)c(C#N)c1` [Compound 39, N-(4-((2-chloro-3-fluorobenzyl)oxy)-3-cyanophenyl)acrylamide]: 250 to 500 nM and at most 250 nM.
Turning to `C=CC(=O)Nc1ccc(OCc2cc(F)ccc2Cl)c(F)c1` [Compound 78, N-(4-((2-chloro-5-fluorobenzyl)oxy)-3-fluorophenyl)acrylamide], the IC50 in test [1] lay within 500 to 2000 nM. The GI50 in the test on NCI-H226 (Homo sapiens, NCI-H226, 72 h) was over 3000 nM.
The like results for `C=C=CC(=O)Nc1ccc(OCc2cccc(F)c2)c(F)c1` [Compound 126] were, in that order, at most 250 nM and 1000 to 3000 nM.
The matching figures for `C=CC(=O)Nc1ccc(OCc2cccnc2Cl)c(F)c1` [Compound 76, N-(4-((2-chloropyridin-3-yl)methoxy)-3-fluorophenyl)acrylamide]: over 2000 nM and over 3000 nM.
